Source: ChEMBL document CHEMBL1156230, “Identification of phenylsulfone-substituted quinoxaline (WYE-672) as a tissue selective liver X-receptor (LXR) agonist” (J Med Chem, 2010)
Calls of active or inactive are those of the source. The calls are words filed in the database; no cut-off is given here.

Key:
[1] = system: THP-1; assay: Induction of [3H]cholesterol efflux in human THP1 cells assessed as lipid accumulation relative to T0901317; assay type: functional
[2] = system: THP-1; assay: Induction of [3H]cholesterol efflux in human THP1 cells
[3] = Cmax in C57 mouse at 10 mg/kg, po; assay type: ADME, organism-based; parameters: dose 10 mg/kg, route oral; details: in vivo
[4] = system: THP-1; assay: Induction of [3H]cholesterol efflux in human THP1 cells assessed as lipid accumulation; assay type: functional, cell-based
[5] = system: THP-1; assay: cells; details: Homo sapiens
[6] = system: HepG2; assay: Agonist activity at LXR in human HepG2 cells assessed as lipid accumulation relative to T0901317
[7] = Plasma concentration in high fat/high cholesterol fed LDLR-deficient mouse at 3 mg/kg, qd administered with diet for 8 weeks measured after 3 hrs of last dose; assay type: ADME, organism-based; parameters: dose 3 mg/kg; details: po
[8] = target: T1, Androgen receptor (Homo sapiens) (UniProt P10275); assay: Binding affinity to androgen receptor
T1 sequence (whole entry): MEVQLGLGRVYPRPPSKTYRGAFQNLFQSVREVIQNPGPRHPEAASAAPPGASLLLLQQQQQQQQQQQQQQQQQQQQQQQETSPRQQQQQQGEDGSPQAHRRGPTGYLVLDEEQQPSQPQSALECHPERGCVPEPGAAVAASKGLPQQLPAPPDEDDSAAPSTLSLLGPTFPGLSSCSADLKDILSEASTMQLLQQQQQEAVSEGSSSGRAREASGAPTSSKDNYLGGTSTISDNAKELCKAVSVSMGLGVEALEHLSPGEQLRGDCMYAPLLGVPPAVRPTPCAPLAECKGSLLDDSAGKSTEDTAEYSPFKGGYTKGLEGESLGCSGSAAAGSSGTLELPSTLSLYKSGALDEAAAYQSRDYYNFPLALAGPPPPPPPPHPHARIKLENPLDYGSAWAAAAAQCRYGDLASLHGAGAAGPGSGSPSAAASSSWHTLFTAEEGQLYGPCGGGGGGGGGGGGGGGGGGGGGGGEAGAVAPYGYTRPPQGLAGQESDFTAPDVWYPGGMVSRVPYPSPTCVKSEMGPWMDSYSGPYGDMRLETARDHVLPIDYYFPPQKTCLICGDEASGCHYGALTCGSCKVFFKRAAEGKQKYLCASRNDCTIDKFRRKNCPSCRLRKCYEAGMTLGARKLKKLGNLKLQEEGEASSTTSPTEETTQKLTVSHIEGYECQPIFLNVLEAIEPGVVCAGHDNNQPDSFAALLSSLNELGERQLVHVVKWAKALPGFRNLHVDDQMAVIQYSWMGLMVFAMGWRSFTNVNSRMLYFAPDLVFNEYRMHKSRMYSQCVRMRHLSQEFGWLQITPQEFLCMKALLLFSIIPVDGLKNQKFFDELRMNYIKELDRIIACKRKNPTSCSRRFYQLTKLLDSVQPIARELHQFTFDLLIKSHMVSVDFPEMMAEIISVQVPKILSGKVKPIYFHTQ

[9] = target: T2, Glucocorticoid receptor (Homo sapiens) (UniProt P04150); assay: Binding affinity to glucocorticoid receptor
T2 sequence (whole entry): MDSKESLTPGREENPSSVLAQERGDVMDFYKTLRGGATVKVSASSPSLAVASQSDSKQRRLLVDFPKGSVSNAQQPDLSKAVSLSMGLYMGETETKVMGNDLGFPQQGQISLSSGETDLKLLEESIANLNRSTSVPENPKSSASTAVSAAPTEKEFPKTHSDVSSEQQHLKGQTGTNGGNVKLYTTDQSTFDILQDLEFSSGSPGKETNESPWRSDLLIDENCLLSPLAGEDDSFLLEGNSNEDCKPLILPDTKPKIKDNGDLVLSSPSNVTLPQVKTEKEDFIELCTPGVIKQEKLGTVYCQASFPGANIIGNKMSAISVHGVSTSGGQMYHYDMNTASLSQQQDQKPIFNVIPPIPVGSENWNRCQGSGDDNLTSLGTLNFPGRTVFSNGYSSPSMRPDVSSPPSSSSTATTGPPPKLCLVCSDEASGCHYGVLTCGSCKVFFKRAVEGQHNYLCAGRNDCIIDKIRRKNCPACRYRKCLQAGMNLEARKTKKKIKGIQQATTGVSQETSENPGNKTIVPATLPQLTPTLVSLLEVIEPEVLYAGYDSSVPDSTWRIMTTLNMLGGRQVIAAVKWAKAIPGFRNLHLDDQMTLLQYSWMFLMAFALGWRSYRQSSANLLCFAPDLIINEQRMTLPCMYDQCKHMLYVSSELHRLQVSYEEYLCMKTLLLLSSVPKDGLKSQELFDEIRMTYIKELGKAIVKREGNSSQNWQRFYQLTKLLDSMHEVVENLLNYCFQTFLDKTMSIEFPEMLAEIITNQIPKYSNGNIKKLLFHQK

[10] = target: T3, Bile acid receptor (Homo sapiens) (UniProt Q96RI1); assay: Binding affinity to FXR
T3 sequence (whole entry): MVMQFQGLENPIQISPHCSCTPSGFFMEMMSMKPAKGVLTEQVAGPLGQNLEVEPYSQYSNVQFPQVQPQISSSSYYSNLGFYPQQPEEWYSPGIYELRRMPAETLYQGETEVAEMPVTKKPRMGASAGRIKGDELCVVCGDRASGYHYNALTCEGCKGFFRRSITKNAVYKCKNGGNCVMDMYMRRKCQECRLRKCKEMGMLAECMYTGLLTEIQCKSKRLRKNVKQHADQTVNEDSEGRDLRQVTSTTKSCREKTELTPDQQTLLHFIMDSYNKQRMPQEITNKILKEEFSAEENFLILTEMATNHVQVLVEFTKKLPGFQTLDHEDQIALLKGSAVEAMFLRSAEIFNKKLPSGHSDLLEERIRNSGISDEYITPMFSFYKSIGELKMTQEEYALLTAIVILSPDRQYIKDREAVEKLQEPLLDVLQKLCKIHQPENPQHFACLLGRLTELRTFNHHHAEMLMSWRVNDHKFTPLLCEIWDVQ

[11] = AUC (0 to infinity) in C57 mouse at 10 mg/kg, po; assay type: ADME, organism-based; parameters: time infinity, dose 10 mg/kg, route oral; details: plasma
[12] = system: Mus musculus; assay: Antiatherosclerotic activity against high fat/high cholesterol fed LDLR-deficient mouse assessed as IPl gene regulation at 3 mg/kg administered with diet for 7 days by Experion chip analysis; assay type: functional, organism-based; parameters: dose 3 mg/kg
[13] = Plasma concentration in high fat/high cholesterol fed LDLR-deficient mouse administered with diet for 8 weeks measured after 3 hrs of last dose; assay type: ADME, organism-based; details: po

SMILES	Efficacy [1]	Activity [2]	Cmax [3]	EC50 [4]	EC50 [5]	Efficacy [6]	concentration at 3 h [7]	Activity [8]	Activity [9]	Activity [10]	AUC(0-inf) [11]	Activity [12]	concentration at 3 h [13]
Cc1nc2c(C(F)(F)F)cccc2nc1-c1ccc(-c2cccc(S(C)(=O)=O)c2)cc1	60%	Dose-dependent effect	229 ng/mL	72 nM	1090 nM	7%	10800 ng/mL	inactive	inactive	inactive	2440 ng·h/mL	–	–
O=C(O)Cc1cccc(OCCCN(Cc2cccc(C(F)(F)F)c2Cl)CC(c2ccccc2)c2ccccc2)c1	–	–	–	–	–	–	–	–	–	–	–	Active	175 ng/mL
